Data: the CheMixHub viscosity set

Experiment: xn = mol fraction of the nth substance listed

CC(C)=O + c1ccccc1
Conditions	viscosity [mPa·s]
293.15 K, 101 kPa, x1 = 0.086	0.598
293.15 K, 101 kPa, x1 = 0.1	0.592
293.15 K, 101 kPa, x1 = 0.1304	0.581
293.15 K, 101 kPa, x1 = 0.248	0.535
293.15 K, 101 kPa, x1 = 0.269	0.528
293.15 K, 101 kPa, x1 = 0.287	0.513
293.15 K, 101 kPa, x1 = 0.4005	0.47
293.15 K, 101 kPa, x1 = 0.408	0.471
293.15 K, 101 kPa, x1 = 0.5661	0.416
293.15 K, 101 kPa, x1 = 0.587	0.414
293.15 K, 101 kPa, x1 = 0.6783	0.385
293.15 K, 101 kPa, x1 = 0.767	0.376
293.15 K, 101 kPa, x1 = 0.7899	0.357
293.15 K, 101 kPa, x1 = 0.864	0.362
293.15 K, 101 kPa, x1 = 0.9053	0.332
293.16 K, 101 kPa, x1 = 0.1304	0.581
293.16 K, 101 kPa, x1 = 0.287	0.513
293.16 K, 101 kPa, x1 = 0.4005	0.47
293.16 K, 101 kPa, x1 = 0.5661	0.416
293.16 K, 101 kPa, x1 = 0.6783	0.385
293.16 K, 101 kPa, x1 = 0.7899	0.357
293.16 K, 101 kPa, x1 = 0.9053	0.332
298.15 K, 101 kPa, x1 = 0.092	0.5569
298.15 K, 101 kPa, x1 = 0.1304	0.534
298.15 K, 101 kPa, x1 = 0.1895	0.5185
298.15 K, 101 kPa, x1 = 0.2364	0.4968
298.15 K, 101 kPa, x1 = 0.287	0.484
298.15 K, 101 kPa, x1 = 0.2986	0.4766
298.15 K, 101 kPa, x1 = 0.3321	0.4654
298.15 K, 101 kPa, x1 = 0.4005	0.446
298.15 K, 101 kPa, x1 = 0.4076	0.4368
298.15 K, 101 kPa, x1 = 0.4692	0.4188
298.15 K, 101 kPa, x1 = 0.49	0.4158
298.15 K, 101 kPa, x1 = 0.5552	0.3985
298.15 K, 101 kPa, x1 = 0.5608	0.3975
298.15 K, 101 kPa, x1 = 0.5661	0.401
298.15 K, 101 kPa, x1 = 0.6629	0.3692
298.15 K, 101 kPa, x1 = 0.6783	0.375
298.15 K, 101 kPa, x1 = 0.7262	0.3546
298.15 K, 101 kPa, x1 = 0.7691	0.3451
298.15 K, 101 kPa, x1 = 0.7899	0.351
298.15 K, 101 kPa, x1 = 0.808	0.3384
298.15 K, 101 kPa, x1 = 0.8946	0.3203
298.15 K, 101 kPa, x1 = 0.9053	0.33
298.16 K, 101 kPa, x1 = 0.1304	0.534
298.16 K, 101 kPa, x1 = 0.287	0.484
298.16 K, 101 kPa, x1 = 0.4005	0.446
298.16 K, 101 kPa, x1 = 0.5661	0.401
298.16 K, 101 kPa, x1 = 0.6783	0.375
298.16 K, 101 kPa, x1 = 0.7899	0.351
298.16 K, 101 kPa, x1 = 0.9053	0.33
303.15 K, 101 kPa, x1 = 0.086	0.523
303.15 K, 101 kPa, x1 = 0.1	0.518
303.15 K, 101 kPa, x1 = 0.248	0.475
303.15 K, 101 kPa, x1 = 0.269	0.469
303.15 K, 101 kPa, x1 = 0.2875	0.456
303.15 K, 101 kPa, x1 = 0.408	0.423
303.15 K, 101 kPa, x1 = 0.4185	0.417
303.15 K, 101 kPa, x1 = 0.5098	0.392
303.15 K, 101 kPa, x1 = 0.5498	0.382
303.15 K, 101 kPa, x1 = 0.587	0.375
303.15 K, 101 kPa, x1 = 0.6652	0.356
303.15 K, 101 kPa, x1 = 0.767	0.346
303.15 K, 101 kPa, x1 = 0.7851	0.331
303.15 K, 101 kPa, x1 = 0.864	0.332
303.15 K, 101 kPa, x1 = 0.8895	0.312
303.16 K, 101 kPa, x1 = 0.2875	0.456
303.16 K, 101 kPa, x1 = 0.4185	0.417
303.16 K, 101 kPa, x1 = 0.5098	0.392
303.16 K, 101 kPa, x1 = 0.5498	0.382
303.16 K, 101 kPa, x1 = 0.6652	0.356
303.16 K, 101 kPa, x1 = 0.7851	0.331
303.16 K, 101 kPa, x1 = 0.8895	0.312
307.35 K, 101.33 kPa, x1 = 0.1115	0.492
307.35 K, 101.33 kPa, x1 = 0.3573	0.419
307.35 K, 101.33 kPa, x1 = 0.4938	0.382
307.35 K, 101.33 kPa, x1 = 0.5562	0.374
307.35 K, 101.33 kPa, x1 = 0.6464	0.352
307.35 K, 101.33 kPa, x1 = 0.8853	0.308
313.15 K, 101 kPa, x1 = 0.086	0.464
313.15 K, 101 kPa, x1 = 0.1	0.46
313.15 K, 101 kPa, x1 = 0.248	0.424
313.15 K, 101 kPa, x1 = 0.269	0.419
313.15 K, 101 kPa, x1 = 0.408	0.378
313.15 K, 101 kPa, x1 = 0.587	0.344
313.15 K, 101 kPa, x1 = 0.767	0.32
313.15 K, 101 kPa, x1 = 0.864	0.309
323.15 K, 101 kPa, x1 = 0.086	0.436
323.15 K, 101 kPa, x1 = 0.1	0.436
323.15 K, 101 kPa, x1 = 0.248	0.404
323.15 K, 101 kPa, x1 = 0.269	0.4
323.15 K, 101 kPa, x1 = 0.408	0.361
323.15 K, 101 kPa, x1 = 0.587	0.33
323.15 K, 101 kPa, x1 = 0.767	0.309

CC(C)=O + O
101 kPa
Conditions	viscosity [mPa·s]
293.15 K, x1 = 0.047	1.328
293.15 K, x1 = 0.095	1.549
293.15 K, x1 = 0.124	1.586
293.15 K, x1 = 0.152	1.588
293.15 K, x1 = 0.192	1.504
293.15 K, x1 = 0.328	1.129
293.15 K, x1 = 0.49	0.746
293.15 K, x1 = 0.687	0.497
293.15 K, x1 = 0.85	0.404
298.15 K, x1 = 0.0201	1.047
298.15 K, x1 = 0.2	1.343
298.15 K, x1 = 0.4	0.88
298.15 K, x1 = 0.6	0.543
298.15 K, x1 = 0.8	0.372
303.15 K, x1 = 0.047	1.027
303.15 K, x1 = 0.095	1.179
303.15 K, x1 = 0.124	1.214
303.15 K, x1 = 0.152	1.212
303.15 K, x1 = 0.192	1.148
303.15 K, x1 = 0.328	0.901
303.15 K, x1 = 0.49	0.625
303.15 K, x1 = 0.687	0.435
303.15 K, x1 = 0.85	0.367
308.15 K, x1 = 0.0499	0.9532
308.15 K, x1 = 0.0702	1.015
308.15 K, x1 = 0.1	1.064
308.15 K, x1 = 0.12	1.08
308.15 K, x1 = 0.1499	1.084
308.15 K, x1 = 0.1701	1.069
308.15 K, x1 = 0.1999	1.039
308.15 K, x1 = 0.22	1.012
308.15 K, x1 = 0.2499	0.9681
308.15 K, x1 = 0.2701	0.9345
308.15 K, x1 = 0.3001	0.8823
308.15 K, x1 = 0.3499	0.7933
308.15 K, x1 = 0.4	0.7101
308.15 K, x1 = 0.4502	0.6353
308.15 K, x1 = 0.5001	0.5698
308.15 K, x1 = 0.6	0.4627
308.15 K, x1 = 0.7	0.3849
308.15 K, x1 = 0.7999	0.3262
308.15 K, x1 = 0.9	0.2729
313.15 K, x1 = 0.0201	0.7526
313.15 K, x1 = 0.047	0.826
313.15 K, x1 = 0.0499	0.8529
313.15 K, x1 = 0.0702	0.9032
313.15 K, x1 = 0.095	0.929
313.15 K, x1 = 0.1	0.9489
313.15 K, x1 = 0.12	0.961
313.15 K, x1 = 0.124	0.945
313.15 K, x1 = 0.1499	0.9659
313.15 K, x1 = 0.152	0.955
313.15 K, x1 = 0.1701	0.9492
313.15 K, x1 = 0.192	0.908
313.15 K, x1 = 0.1999	0.9232
313.15 K, x1 = 0.22	0.9029
313.15 K, x1 = 0.2499	0.8658
313.15 K, x1 = 0.2701	0.8358
313.15 K, x1 = 0.3001	0.792
313.15 K, x1 = 0.328	0.737
313.15 K, x1 = 0.3499	0.7155
313.15 K, x1 = 0.4	0.6429
313.15 K, x1 = 0.4502	0.5785
313.15 K, x1 = 0.49	0.536
313.15 K, x1 = 0.5001	0.5234
313.15 K, x1 = 0.6	0.4276
313.15 K, x1 = 0.687	0.386
313.15 K, x1 = 0.7	0.361
313.15 K, x1 = 0.7999	0.302
313.15 K, x1 = 0.85	0.333
313.15 K, x1 = 0.9	0.2597
318.15 K, x1 = 0.0201	0.6793
318.15 K, x1 = 0.0499	0.7678
318.15 K, x1 = 0.0702	0.8166
318.15 K, x1 = 0.1	0.8463
318.15 K, x1 = 0.12	0.8495
318.15 K, x1 = 0.1499	0.8555
318.15 K, x1 = 0.1701	0.8465
318.15 K, x1 = 0.1999	0.8249
318.15 K, x1 = 0.22	0.8044
318.15 K, x1 = 0.2499	0.7773
318.15 K, x1 = 0.2701	0.7529
318.15 K, x1 = 0.3001	0.7134
318.15 K, x1 = 0.3499	0.6478
318.15 K, x1 = 0.4	0.5851
318.15 K, x1 = 0.4502	0.5251
318.15 K, x1 = 0.5001	0.476
318.15 K, x1 = 0.6	0.3869
318.15 K, x1 = 0.7	0.3317
318.15 K, x1 = 0.7999	0.2774
318.15 K, x1 = 0.9	0.2431
323.15 K, x1 = 0.047	0.746
323.15 K, x1 = 0.095	0.834
323.15 K, x1 = 0.124	0.853
323.15 K, x1 = 0.152	0.859
323.15 K, x1 = 0.192	0.808
323.15 K, x1 = 0.328	0.682
323.15 K, x1 = 0.49	0.499
323.15 K, x1 = 0.687	0.367
323.15 K, x1 = 0.85	0.32
